From patent US7348178B1, “Recombinant adenoviral vector system” (priority 1994, dated 2008)
Entries after “also recorded” stand apart in the source; their conditions may differ.

Experiments:
Type in all cases: cell-based, human
uninfected 293 cells = assay: Drug cytotoxicity in uninfected 293 cells; details: 20 mM 2AP, 48 h posttreatment
[1] = tested on: wild type Ad-infected 293 cells; assay: [35S]methionine labeling, SDS-PAGE: Ad shutoff of cell protein synthesis
Method: FIG. 7. […] Uninfected and wild type Ad-infected 293 cells were labeled with [^35S]methionine at 24 h post infection and duplicate plates were treated with 10 mM 2AP, added 1 to 2 h after infection. Equal amounts of protein from labeled extracts were analyzed by SDS-polyacrylamide gel electrophoresis and fluorographed. Ad late polypeptides correspond to proteins II, III, IV, V, pIV, pVIII, pVI, and IX.
Cells were labeled with [^35S]methionine for 1 to 2 h by using 50 μCi of trans[^35S]methionine (ICN) per ml in DMEM lacking methionine and supplemented with 2% calf serum. Cell extracts were prepared by sonication of washed cells in 10 mM KC1-10 mM Tris (pH 7.4)−1 mM EDTA at 4° C. and cleared of debris by centrifugation at 10,000 rpm equal amounts of protein were analyzed in sodium dodecyl sulfate (SDS)-polyacrylamide gels. Gels were fluorographed and quantitated by densitometry.
293 cells were treated with 2AP for the duration of infection, starting shortly after the addition of virus. Duplicate plates of cells were then labeled with [^35S]methionine, and extracts were analyzed by SDS-polyacrylamide gel electrophoresis (FIG. 7) or photographed at various times after infection for evidence of CPE (see FIG. 5).

[2] = tested on: cytokeratin network of 293 cells infected with Ad2 ts1; assay: Indirect immunofluorescence of keratin K18 network in Ad2 ts1-infected 293 cells; details: Ad ts1 infection at 39.5° C. plus 2AP, fixed 22 h post infection
Method: FIG. 6. […] 293 cells were infected with Ad2 ts1 at 4,000 particles per cell, a 25 plaque forming unit (PFU) per cell equivalent, given the high particle/PFU ratio for this mutant, in the presence or absence of 2AP at 32° C. or 39.5° C. […] Cells were fixed and processed for indirect immunofluorescence, using a keratin K18-specific antibody. Cells infected at 32° C. were fixed at 40 h post infection, cells infected at 39.5° C. were fixed at 22 h post infection. By preventing Ad viral proteolysis of keratin K18, viral induced CPE and early cell lysis can be controlled.
Cells were grown on coverslips, fixed with paraformaldehyde, and permeabilized with Triton X-100. Mouse monoclonal antibodies directed against vimentin were purchased from Boehringer Mannheim Biochemicals. A mouse monoclonal antibody specific for keratins K18 (KS-B17.2) and K1, 5 to 8, 10, 11, and 18 (no. 8.13) were from Sigma Chemical Co. Fluorescein isothiocyanate-conjugated rabbit anti-mouse antibodies were purchased from Sigma. Cells were photographed under visible or ultraviolet light using a Zeiss photomicroscope.
Experiments were performed to test whether coupled shutoff of host protein synthesis and cleavage of cytokeratins truly correlates with development of CPE. […] Cells were infected with […] at permissive (32° C.) and restrictive (39.5° C.) temperatures. […]

[3] = tested on: wild type Ad-infected 293 cells; assay: Ad-induced CPE in infected 293 cells, photographed; details: wild type Ad 50 PFU per cell, 20 mM 2AP added 2 h post infection, 24 and 48 h
Method: FIG. 5. Prevention of adenovirus induced CPE and facilitated cell lysis or loss of metabolic function during expression of late viral genes. Cells were infected at 50 PFU per cell with wild type Ad, and 20 mM 2-aminopurine (2AP) was added to duplicate plates 2 h post infection for up to 48 h. Cells were photographed at 24 and 48 h. […] Late Ad polypeptides can therefore be expressed in this system for the duration of several days without facilitating cell lysis and CPE that would limit their expression.
Ad 300 is a wild type strain 5 isolate (H5wl300) originally purified by H. Ginsberg is available through the ATCC. Ad2 ts1 is described in Chen et al., 1993, J. Virol. 67:3507-3514. 293 cells are human embryonic kidney cell line that express the E1 region of Ad5 (Graham et al., 1977, J. Gen. Virol. 36:59-72). 293 and HeLa cells were cultured in Dulbecco's modified Eagle's medium (DMEM) containing 10% calf serum. Virus stocks were grown and titers were determined on 293 cells. RD (human rhabdosarcoma) cells were obtained from the American Type Culture Collection and grown in DMEM containing 15% fetal bovine serum. 2AP was prepared and used as previously described (Huang & Schneider, 1990, PNAS USA 87:7115-7119). Infections of cells with viruses were typically carried out for 1 h with 50 PFU per cell unless otherwise noted. […]

SMILES: Nc1ncc2[nH]cnc2n1 [2AP, 2-aminopurine]
- cytotoxicity (uninfected 293 cells): little detectable cytotoxicity
- shutoff of cell protein synthesis / translation ([1]; 10 mM 2AP added 1 to 2 h after infection, labeled 24 h post infection): prevents the shutoff of translation of cellular and early Ad mRNAs; also recorded: prevent Ad shutoff of cell protein synthesis
- levels of cellular polypeptide synthesis and of Ad mRNAs lacking the tripartite leader ([1]; 2AP-treated infected 293 cells): significantly elevated
- keratin network integrity [2]: remarkably well preserved
- Ad-induced CPE [3]: largely prevented detectable CPE; also recorded: significantly reduced cytopathic effect; also recorded: only slight CPE
